Measured values taken from PMC8044163, “Vitamin D and lumisterol derivatives can act on liver X receptors (LXRs)” (Scientific Reports, 2021).

Test system: murine dermal fibroblasts
Test: RNA-Seq of newborn murine dermal fibroblasts
Assay type: cell-based, mouse
Conditions: 10^−7 M, 24 h; for number of genes solely downregulated / number of genes solely upregulated: FC ≥ 2
Protocol: All animal studies followed guidelines outlined by the NIH Guide for the Care and Use of Laboratory Animals and protocols were approved by the Institutional Animal Care and Use Committee at the NIEHS or the UAB. […] Skin samples from newborn C57BL/6 mice were collected at the NIEHS. Dermal fibroblasts were isolated from the skin of newborn mice, 1–2 day old. Briefly, we followed the protocols described previously. The skin was washed in PBS, cut into smaller pieces and incubated in 2.4 U/ml of dispase II (Roche) overnight at 4 °C. The dermis was separated from the epidermis and incubated in 0.1% collagenase (Roche) at 4 °C overnight. […] Single cell suspension was prepared by pipetting and draining through a cell strainer. After centrifugation, cell pellets were suspended in DMEM medium containing 10% charcoal-stripped fetal bovine serum (cFBS), mouse fibroblasts growth factor (FGF) and 1% antibiotic, and inoculated into tissue culture dishes (Midwest Scientific, TPP). Cells, in early passages, from different mice were pooled together to provide representative samples for experiments. Fibroblasts were cultured in Petri dishes (10 cm in diameter) in DMEM and 10% cFBS and triplicate semi-confluent cultures were treated as described.
Triplicate cultures of murine fibroblasts were used for RNA isolation (RNAeasy Micro kit, Qiagen), the RNA samples were combined for each condition and at least 200 ng of RNA for each sample was used to create libraries for RNA sequencing by BGI Americas Corporation Service (Cambridge, MA)[67]. Quality of RNA and its concentration were determined using Agilent 2100.
The raw sequence FASTQ files were aligned to Gencode’s GRCm38 p4 Release M11 genome using STAR version 2.5.4b (parameters used: –outReadsUnmapped Fastx; –outSAMtype BAM SortedByCoordinate; –outSAMattributes All; –outFilterIntronMotifs RemoveNoncanonicalUnannotated)[69]. The abundance of transcripts was calculated from the alignments using Cufflinks version 2.2.1 (parameters used: –G; –L; –library-type fr-firststrand). Samples were merged using default parameters with Cuffmerge[70],[71]. The differential expression was calculated using Cuffdiff’s default parameters. The raw data have been deposited at the NCBI GEO (GSE145818).

C=C1C(=CC=C2CCCC3(C)C2CCC3C(C)(O)CC(O)CC(C)C)CC(O)CC1O (stereo not shown) [1,20,23(OH)3D3]
Adh7 expression level: 1.313 | Adh7 log2(fold_change) vs control: 2.36 | Aqp11 expression level: 0.9394 | Aqp11 log2(fold_change) vs control: 2.077 | Arid3b expression level: 0.6082 | Arid3b log2(fold_change) vs control: -2.478 | Bicd1 expression level: 0.7058 | Bicd1 log2(fold_change) vs control: -1.592 | Btc expression level: 1.117 | Btc log2(fold_change) vs control: 2.211 | Car9 expression level: 2.818 | Car9 log2(fold_change) vs control: -1.732 | Cbs expression level: 0.2989 | Cbs log2(fold_change) vs control: -2.697 | Ccl4 expression level: 0.3377 | Ccl4 log2(fold_change) vs control: -1.322 | Cd68 expression level: 3.541 | Cd68 log2(fold_change) vs control: 1.639 | Cd200 expression level: 0.5777 | Cd200 log2(fold_change) vs control: -1.286 | Cherp expression level: 32.7784 | Cherp log2(fold_change) vs control: -2.489 | Clec2g expression level: 0 | Clec2g log2(fold_change) vs control: -inf | Cnnm4 expression level: 4.2236 | Cnnm4 log2(fold_change) vs control: -3.566 | Cox15 expression level: 15.6597 | Cox15 log2(fold_change) vs control: 1.429 | Cpa2 expression level: 0.3128 | Cpa2 log2(fold_change) vs control: -2.322 | Ctrl expression level: 0.34 | Ctrl log2(fold_change) vs control: -1.578 | Dcun1d1 expression level: 4.162 | Dcun1d1 log2(fold_change) vs control: -1.661 | Defb42 expression level: 0.2203 | Defb42 log2(fold_change) vs control: -2.046 | Dtx1 expression level: 0.142 | Dtx1 log2(fold_change) vs control: -3.544 | Ehf expression level: 0.2985 | Ehf log2(fold_change) vs control: -1.4739 | Ercc2 expression level: 13.9366 | Ercc2 log2(fold_change) vs control: -3.6 | Erh expression level: 2.618 | Erh log2(fold_change) vs control: -1.258 | Fmnl1 expression level: 0.2192 | Fmnl1 log2(fold_change) vs control: -2.084 | Gys2 expression level: 0 | Gys2 log2(fold_change) vs control: -inf | Hist1h2ab expression level: 1.43 | Hist1h2ab log2(fold_change) vs control: 2.322 | Hist1h2bg expression level: 0 | Hist1h2bg log2(fold_change) vs control: -inf | Hist1h2bh expression level: 0 | Hist1h2bh log2(fold_change) vs control: -inf | Hist1h4c expression level: 0.4025 | Hist1h4c log2(fold_change) vs control: -1 | Isl1 expression level: 0.3246 | Isl1 log2(fold_change) vs control: -1.301 | Krt19 expression level: 10.3867 | Krt19 log2(fold_change) vs control: 1.043 | Larp1b expression level: 6.304 | Lhx6 expression level: 2.879 | Lhx6 log2(fold_change) vs control: -2.012 | Lsm5 expression level: 1.269 | Lsm5 log2(fold_change) vs control: -1.065 | M1ap expression level: 2.14 | M1ap log2(fold_change) vs control: 1.796 | Med9os expression level: 0.7829 | Med9os log2(fold_change) vs control: -1.4 | Nckipsd expression level: 23.2533 | Nckipsd log2(fold_change) vs control: 2.486 | Nr3c2 expression level: 0.0668 | Nr3c2 log2(fold_change) vs control: -4.037 | Nr6a1 expression level: 0.2068 | Nr6a1 log2(fold_change) vs control: -3.152 | Ntrk3 expression level: 0.4025 | Ntrk3 log2(fold_change) vs control: -2.2019 | Parvg expression level: 0.1595 | Parvg log2(fold_change) vs control: -3.209 | Pde4dip expression level: 24.1833 | Pde4dip log2(fold_change) vs control: -7.338 | Psd4 expression level: 0.1018 | Psd4 log2(fold_change) vs control: -3.94 | Ptpa expression level: 214.561 | Ptpa log2(fold_change) vs control: 1.701 | Ptpn6 expression level: 3.903 | Ptpn6 log2(fold_change) vs control: -1.613 | Rnu3a expression level: 0 | Rnu3a log2(fold_change) vs control: -inf | Rpph1 expression level: 0.6553 | Rpph1 log2(fold_change) vs control: -1 | Rsad1 expression level: 1.419 | Rsad1 log2(fold_change) vs control: -1.14 | Saa1 expression level: 0.1901 | Saa1 log2(fold_change) vs control: -2.322 | Samd12 expression level: 0.2728 | Samd12 log2(fold_change) vs control: -3.717 | Scn8a expression level: 0.1998 | Scn8a log2(fold_change) vs control: -2 | Sgca expression level: 0.5689 | Sgca log2(fold_change) vs control: -1.112 | Slc15a4 expression level: 13.3996 | Slc15a4 log2(fold_change) vs control: -2.086 | Slc16a5 expression level: 0.07215 | Slc16a5 log2(fold_change) vs control: -3.671 | Snhg9 expression level: 3.722 | Snhg9 log2(fold_change) vs control: -2.322 | St7 expression level: 24.6198 | St7 log2(fold_change) vs control: -1.48 | Stmn1 expression level: 5.272 | Stmn1 log2(fold_change) vs control: 1.77 | Susd1 expression level: 2.296 | Susd1 log2(fold_change) vs control: 1.732 | Syt8 expression level: 0.5148 | Syt8 log2(fold_change) vs control: -2.627 | Syt12 expression level: 0.9828 | Syt12 log2(fold_change) vs control: -2.055 | Tldc2 expression level: 0 | Tldc2 log2(fold_change) vs control: -inf | Tnnc2 expression level: 0.3105 | Tnnc2 log2(fold_change) vs control: -1.361 | Unc5c expression level: 0.4569 | Unc5c log2(fold_change) vs control: -1.248 | Wdr17 expression level: 0.2366 | Wdr17 log2(fold_change) vs control: -3.241 | Zbtb18 expression level: 4.229 | Zbtb18 log2(fold_change) vs control: -3.388 | Zfp618 expression level: 1.3488 | Zfp618 log2(fold_change) vs control: -1.817 | number of genes downregulated, FC ≥ 2: 520 | number of genes upregulated, FC ≥ 2: 531 | number of genes solely downregulated: 113 (10.7%) | number of genes solely upregulated: 256 (17%)

C=C1/C(=C\C=C2/CCC[C@]3(C)[C@@H]([C@H](C)CCCC(C)(C)O)CC[C@@H]23)C[C@@H](O)C[C@@H]1O [1,25(OH)2D3, reference compound]
Adh7 expression level: 1.042 | Aqp11 expression level: 0.9562 | Arid3b expression level: 1.268 | Bicd1 expression level: 0.7304 | Btc expression level: 0.9514 | Car9 expression level: 3.341 | Cbs expression level: 0.4189 | Ccl4 expression level: 0 | Cd68 expression level: 5.274 | Cd200 expression level: 0.3998 | Cherp expression level: 35.1454 | Clec2g expression level: 0 | Cnnm4 expression level: 11.9457 | Cox15 expression level: 15.3542 | Cpa2 expression level: 0.3127 | Ctrl expression level: 0.3422 | Dcun1d1 expression level: 6.457 | Defb42 expression level: 0.2302 | Dtx1 expression level: 0.2518 | Ehf expression level: 0.2831 | Ercc2 expression level: 13.8618 | Erh expression level: 2.728 | Fmnl1 expression level: 0.04415 | Gys2 expression level: 0 | Hist1h2ab expression level: 1.144 | Hist1h2bg expression level: 0.5636 | Hist1h2bh expression level: 0 | Hist1h4c expression level: 0 | Isl1 expression level: 0.2249 | Krt19 expression level: 14.9744 | Larp1b expression level: 2.787 | Lhx6 expression level: 3.883 | Lsm5 expression level: 0.9896 | M1ap expression level: 1.719 | Med9os expression level: 0.7826 | Nckipsd expression level: 15.4716 | Nr3c2 expression level: 0.1558 | Nr6a1 expression level: 0.3582 | Ntrk3 expression level: 0 | Parvg expression level: 0.1595 | Pde4dip expression level: 20.1604 | Psd4 expression level: 0.7259 | Ptpa expression level: 235.847 | Ptpn6 expression level: 2.532 | Rnu3a expression level: 0 | Rpph1 expression level: 0.655 | Rsad1 expression level: 1.447 | Saa1 expression level: 0.19 | Samd12 expression level: 0.7427 | Scn8a expression level: 0.3603 | Sgca expression level: 0.3791 | Slc15a4 expression level: 20.8062 | Slc16a5 expression level: 0.1731 | Snhg9 expression level: 3.721 | St7 expression level: 31.903 | Stmn1 expression level: 3.691 | Susd1 expression level: 2.151 | Syt8 expression level: 1.517 | Syt12 expression level: 0.9903 | Tldc2 expression level: 0.381 | Tnnc2 expression level: 0 | Unc5c expression level: 0.3264 | Wdr17 expression level: 0.7213 | Zbtb18 expression level: 5.623 | Zfp618 expression level: 1.668 | number of genes downregulated, FC ≥ 2: 566 | number of genes upregulated, FC ≥ 2: 601 | number of genes solely downregulated: 159 (15%) | number of genes solely upregulated: 322 (21.4%)
